Experimental data from patent EP1683523A1, “2-Phenylquinoxalines as inhibitors for MPP1” (MAX-PLANCK-GESELLSCHAFT ZUR FÖRDERUNG DER WISSENSCHAFTEN …, priority 2005, dated 2006).

Assays:
[1] = molecular target: T1, His-tagged human MPP1 construct (Aa 1-533) (Homo sapiens, UniProt Q96Q89); assay: Malachite-green based in vitro microtubule-stimulated ATPase assay (potency study); assay type: biochemical; conditions: microtubule-stimulated ATPase activity, DMSO as solvent control, Fig. 1
T1 construct: a His-tagged human MPP1 construct (Aa 1-533); His
T1 sequence (Q96Q89 1-533): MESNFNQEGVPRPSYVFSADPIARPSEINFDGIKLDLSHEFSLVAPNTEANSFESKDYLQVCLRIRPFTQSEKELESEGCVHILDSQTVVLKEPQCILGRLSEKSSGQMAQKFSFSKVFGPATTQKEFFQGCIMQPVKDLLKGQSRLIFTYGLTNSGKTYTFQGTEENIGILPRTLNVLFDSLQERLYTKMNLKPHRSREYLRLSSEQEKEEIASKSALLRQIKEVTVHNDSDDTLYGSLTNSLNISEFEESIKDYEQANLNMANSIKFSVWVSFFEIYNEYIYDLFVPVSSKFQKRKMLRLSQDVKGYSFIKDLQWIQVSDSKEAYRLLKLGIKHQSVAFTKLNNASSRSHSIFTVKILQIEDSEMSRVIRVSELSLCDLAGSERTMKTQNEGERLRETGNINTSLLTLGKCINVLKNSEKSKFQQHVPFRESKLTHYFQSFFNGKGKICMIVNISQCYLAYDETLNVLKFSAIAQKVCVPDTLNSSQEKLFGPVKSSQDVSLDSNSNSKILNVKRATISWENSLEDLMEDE
Description: The 2-phenylquinoxaline derivatives were measured be means of a malachite-green based (Itaya K. and UI, M. (1966), A new micromethod for the colorimetric determination of inorganic phosphate; Clin. Chim. Acta, 14: 362 - 366) in vitro ATPase assay. For this assay the microtubule-stimulated ATPase activity of a His-tagged human MPP1 construct (Aa 1-533) in the presence of small molecules or DMSO as a solvent control were measured. These studies are done in 384-well plates in which individual compounds of a large compound collection are transferred into each well using a liquid handling robot.
The potency of 5-chloro-2-(3,4-dichlorophenyl)-7-(trifluoromethyl)quinoxaline as a representative example of the 2-phenylquinoxaline derivatives of general formula (I) was determined by measuring MPP1's microtubule-stimulated ATPase activity in vitro in the presence of 5-chloro-2-(3,4-dichlorophenyl)-7-(trifluoromethyl)-quinoxaline or DMSO as a solvent control. For these studies a malachite green assay which allows the quantification of free phosphate (Pi) in solution was used.

Eg5 = molecular target: T2, Eg5 (Homo sapiens, UniProt P52732); assay: Malachite-green in vitro microtubule-stimulated ATPase assay (specificity); assay type: biochemical; conditions: Fig. 2
T2 sequence (P52732 1-1056): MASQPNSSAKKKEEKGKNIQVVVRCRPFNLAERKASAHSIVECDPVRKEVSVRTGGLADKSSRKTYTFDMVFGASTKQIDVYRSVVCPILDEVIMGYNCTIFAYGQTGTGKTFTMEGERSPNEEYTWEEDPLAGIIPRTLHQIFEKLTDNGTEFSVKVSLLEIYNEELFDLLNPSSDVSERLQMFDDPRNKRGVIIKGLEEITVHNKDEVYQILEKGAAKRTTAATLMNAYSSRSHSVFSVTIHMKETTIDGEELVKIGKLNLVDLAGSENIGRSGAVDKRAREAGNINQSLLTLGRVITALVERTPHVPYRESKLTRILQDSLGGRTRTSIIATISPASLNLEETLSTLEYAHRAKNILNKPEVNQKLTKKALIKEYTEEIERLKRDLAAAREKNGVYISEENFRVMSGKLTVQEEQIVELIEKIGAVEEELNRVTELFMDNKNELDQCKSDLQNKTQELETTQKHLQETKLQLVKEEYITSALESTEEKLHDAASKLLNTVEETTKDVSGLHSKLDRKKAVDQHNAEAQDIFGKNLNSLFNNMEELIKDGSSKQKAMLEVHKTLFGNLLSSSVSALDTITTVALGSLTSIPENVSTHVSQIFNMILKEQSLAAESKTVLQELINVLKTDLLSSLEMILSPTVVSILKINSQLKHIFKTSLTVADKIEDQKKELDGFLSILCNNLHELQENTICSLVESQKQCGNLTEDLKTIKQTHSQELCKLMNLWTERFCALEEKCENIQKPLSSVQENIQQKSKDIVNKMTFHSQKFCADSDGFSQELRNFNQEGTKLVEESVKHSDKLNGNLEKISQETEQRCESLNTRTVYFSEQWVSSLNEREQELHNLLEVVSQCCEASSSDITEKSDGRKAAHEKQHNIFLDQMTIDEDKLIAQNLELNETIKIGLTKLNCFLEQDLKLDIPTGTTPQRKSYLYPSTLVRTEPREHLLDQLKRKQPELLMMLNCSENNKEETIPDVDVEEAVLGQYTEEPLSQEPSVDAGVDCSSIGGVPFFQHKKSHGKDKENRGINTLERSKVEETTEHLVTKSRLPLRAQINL
Description: (§1) The specificity of 5-chloro-2-(3,4-dichlorophenyl)-7-(trifluoromethyl)quinoxaline was determined by measuring its effect on the microtubule-stimulated in vitro ATPase activities of the kinesins Eg5, Kif4, Mklp1, and Mklp2.

Kif4 = molecular target: T3, Kif4 (Homo sapiens, UniProt O95239); assay: as above; assay type: biochemical; conditions: Fig. 2
T3 sequence (O95239 1-1232): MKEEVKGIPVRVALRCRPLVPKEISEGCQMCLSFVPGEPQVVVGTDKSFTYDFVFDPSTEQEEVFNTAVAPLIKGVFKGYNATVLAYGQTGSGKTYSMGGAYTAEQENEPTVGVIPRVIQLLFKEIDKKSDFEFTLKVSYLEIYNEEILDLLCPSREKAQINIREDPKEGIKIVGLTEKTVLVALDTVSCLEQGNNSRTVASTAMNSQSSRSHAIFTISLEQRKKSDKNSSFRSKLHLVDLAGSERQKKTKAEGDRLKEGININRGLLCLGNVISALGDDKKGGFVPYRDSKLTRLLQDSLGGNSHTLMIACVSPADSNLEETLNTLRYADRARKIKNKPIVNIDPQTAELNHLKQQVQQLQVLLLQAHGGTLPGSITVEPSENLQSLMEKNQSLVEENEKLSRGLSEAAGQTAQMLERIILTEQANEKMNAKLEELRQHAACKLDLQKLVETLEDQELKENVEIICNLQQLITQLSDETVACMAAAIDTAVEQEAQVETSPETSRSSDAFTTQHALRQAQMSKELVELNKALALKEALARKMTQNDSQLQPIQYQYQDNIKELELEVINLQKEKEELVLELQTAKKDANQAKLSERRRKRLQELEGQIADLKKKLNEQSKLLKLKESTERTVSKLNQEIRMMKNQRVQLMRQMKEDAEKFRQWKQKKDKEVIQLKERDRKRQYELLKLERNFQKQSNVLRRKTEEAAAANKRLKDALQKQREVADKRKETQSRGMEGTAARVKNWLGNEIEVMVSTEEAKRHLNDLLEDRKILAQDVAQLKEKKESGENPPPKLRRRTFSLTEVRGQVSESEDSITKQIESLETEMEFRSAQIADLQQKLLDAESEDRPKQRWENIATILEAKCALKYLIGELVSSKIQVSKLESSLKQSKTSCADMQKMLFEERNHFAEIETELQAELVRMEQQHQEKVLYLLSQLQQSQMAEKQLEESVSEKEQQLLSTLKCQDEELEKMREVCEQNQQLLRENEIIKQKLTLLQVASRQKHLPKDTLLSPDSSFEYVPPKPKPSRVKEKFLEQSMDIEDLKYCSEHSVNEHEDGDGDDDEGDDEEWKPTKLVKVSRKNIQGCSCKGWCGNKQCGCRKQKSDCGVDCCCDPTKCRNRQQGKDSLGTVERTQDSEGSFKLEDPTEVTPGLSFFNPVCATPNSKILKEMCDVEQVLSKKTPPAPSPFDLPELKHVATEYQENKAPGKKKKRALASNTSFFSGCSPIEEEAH
Description: as §1

Mklp1 = molecular target: T4, Mklp1 (Homo sapiens, UniProt Q02241); assay: as above; assay type: biochemical; conditions: Fig. 2
T4 sequence (Q02241 1-960): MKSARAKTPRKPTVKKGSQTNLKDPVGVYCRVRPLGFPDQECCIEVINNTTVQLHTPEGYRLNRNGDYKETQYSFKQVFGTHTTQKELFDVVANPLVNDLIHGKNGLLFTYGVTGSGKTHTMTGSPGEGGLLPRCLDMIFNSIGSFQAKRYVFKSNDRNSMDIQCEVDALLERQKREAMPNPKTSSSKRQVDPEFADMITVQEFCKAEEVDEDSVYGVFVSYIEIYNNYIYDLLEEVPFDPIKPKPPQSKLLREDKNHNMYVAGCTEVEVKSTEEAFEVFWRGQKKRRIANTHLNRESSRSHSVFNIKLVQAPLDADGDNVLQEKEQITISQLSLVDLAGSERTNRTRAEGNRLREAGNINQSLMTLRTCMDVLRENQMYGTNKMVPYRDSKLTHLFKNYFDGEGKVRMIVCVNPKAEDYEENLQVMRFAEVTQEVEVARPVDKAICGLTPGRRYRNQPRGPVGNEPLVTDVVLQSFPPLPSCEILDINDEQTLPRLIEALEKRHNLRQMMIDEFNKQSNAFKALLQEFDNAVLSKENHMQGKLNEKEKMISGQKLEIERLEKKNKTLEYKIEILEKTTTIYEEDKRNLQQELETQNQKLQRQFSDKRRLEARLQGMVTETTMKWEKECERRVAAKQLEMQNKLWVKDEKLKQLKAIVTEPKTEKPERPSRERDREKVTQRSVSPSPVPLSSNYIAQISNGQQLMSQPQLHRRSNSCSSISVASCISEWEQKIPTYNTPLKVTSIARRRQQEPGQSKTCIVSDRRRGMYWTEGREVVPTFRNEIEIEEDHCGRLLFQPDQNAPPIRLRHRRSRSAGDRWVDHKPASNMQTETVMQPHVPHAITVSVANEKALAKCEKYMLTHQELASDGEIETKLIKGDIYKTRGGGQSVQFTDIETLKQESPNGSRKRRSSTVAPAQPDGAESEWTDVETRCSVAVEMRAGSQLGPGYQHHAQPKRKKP
Description: as §1

Mklp2 = molecular target: T5, Mklp2 (Homo sapiens, UniProt O95235); assay: as above; assay type: biochemical; conditions: Fig. 2
T5 sequence (O95235 1-890): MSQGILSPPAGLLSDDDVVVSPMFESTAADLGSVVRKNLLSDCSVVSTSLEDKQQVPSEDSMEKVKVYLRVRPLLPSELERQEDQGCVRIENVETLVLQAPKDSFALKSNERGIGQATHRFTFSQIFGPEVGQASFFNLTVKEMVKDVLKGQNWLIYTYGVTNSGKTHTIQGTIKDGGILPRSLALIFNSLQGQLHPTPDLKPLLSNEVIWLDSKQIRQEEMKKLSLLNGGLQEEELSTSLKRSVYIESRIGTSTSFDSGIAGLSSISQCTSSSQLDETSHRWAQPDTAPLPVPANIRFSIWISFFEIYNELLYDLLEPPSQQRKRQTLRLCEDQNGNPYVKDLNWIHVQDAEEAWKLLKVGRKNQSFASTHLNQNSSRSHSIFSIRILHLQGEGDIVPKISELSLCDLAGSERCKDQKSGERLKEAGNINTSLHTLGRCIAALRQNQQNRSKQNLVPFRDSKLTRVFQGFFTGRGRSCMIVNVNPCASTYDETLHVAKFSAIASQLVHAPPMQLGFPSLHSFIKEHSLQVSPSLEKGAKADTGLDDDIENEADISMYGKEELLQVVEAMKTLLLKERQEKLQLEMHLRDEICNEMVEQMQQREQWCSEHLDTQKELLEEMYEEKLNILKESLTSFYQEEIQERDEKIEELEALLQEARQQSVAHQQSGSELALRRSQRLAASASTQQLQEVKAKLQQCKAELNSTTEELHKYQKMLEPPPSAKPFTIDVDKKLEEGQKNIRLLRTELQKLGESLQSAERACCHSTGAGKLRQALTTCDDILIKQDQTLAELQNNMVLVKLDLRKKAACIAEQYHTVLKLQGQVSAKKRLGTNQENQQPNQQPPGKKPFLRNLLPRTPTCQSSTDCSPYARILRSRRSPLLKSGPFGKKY
Description: as §1

[2] = system: BSC-1 (African green monkey) cells; assay: Cellular phenotype: count of binucleated cells; assay type: cell-based; conditions: Chlorocebus sabaeus; synchronized BSC-1 cells, released from thymidine-block for three hours, treated for 18 hours; at least 200 cells counted per concentration; read-out: EC50, induction of a binucleate phenotype in BSC-1
Description: Concerning the study the function of MPP1 in living cells, it was tested whether 5-chloro-2-(3,4-dichlorophenyl)-7-(trifluoromethyl)quinoxaline induces a phenotype similar to the one obtained by RNAi-mediated depletion of MPP1. For these studies we treated synchronized BSC-1 (African green monkey) cells with 5-chloro-2-(3,4-dichlorophenyl)-7-(trifluoromethyl)quinoxaline or DMSO as a solvent control.
BSC-1 cells were released from thymidine-block for three hours and then treated with 50µM or the indicated concentrations of 5-chloro-2-(3,4-dichlorophenyl)-7-(trifluoromethyl)quinoxaline for 18 hours. Treated cells were fixed with formaledehyde-containing buffer and the DNA and microtubule cytoskeleton were visualized with Hoechst and FITC-labled anti-tubulin antibody, respectively. The number of binucleated cells was determined by manual counting of at least 200 cells per concentration.

Hela S3 cells = assay: Cellular phenotype: binucleate phenotype; assay type: cell-based; conditions: Fig. 3
[3] = system: cellular processes known to be independent of MPP1 function; assay: Specificity in vivo: effect on cellular processes independent of MPP1; assay type: cell-based; conditions: golgi/lysosome localization, actin/microtubule cytoskeleton in interphase, protein synthesis, S to M-phase cell cycle progression, wound healing
Description: For the specificity in vivo studies, the effect of 5-chloro-2-(3,4-dichlorophenyl)-7-(trifluoromethyl)quinoxaline on cellular processes known to be independent of MPP1 function, e.g. golgi/lysosome localization, actin/microtubule cytoskeleton in interphase, protein synthesis, S to M-phase cell cycle progression, and wound healing was investigated.

IC50 [1]: ~40 µM
effect on the in vitro ATPase activity of Eg5 (Eg5): no significant effect
effect on the in vitro ATPase activity of Kif4 (Kif4): no significant effect
effect on the in vitro ATPase activity of Mklp1 (Mklp1): no significant effect
effect on the in vitro ATPase activity of Mklp2 (Mklp2): no significant effect
EC50 [2]: ~50 µM
SMILES: FC(F)(F)c1cc(Cl)c2ncc(-c3ccc(Cl)c(Cl)c3)nc2c1 [5-chloro-2-(3,4-dichlorophenyl)-7-(trifluoromethyl)quinoxaline]
binucleate phenotype in Hela S3 cells (Hela S3 cells): induces a binucleate phenotype
effect on the tested cellular processes [3]: no observable effect
